These results are taken from paper PMC4469081 (Bioorganic & medicinal chemistry letters, 2015).

Type in all cases: cell-based
For data set [1], the target named is T1, mouse SR-BI (ldlA[mSR-BI]) (Mus musculus, UniProt Q61009).
T1 sequence (Q61009 1-509): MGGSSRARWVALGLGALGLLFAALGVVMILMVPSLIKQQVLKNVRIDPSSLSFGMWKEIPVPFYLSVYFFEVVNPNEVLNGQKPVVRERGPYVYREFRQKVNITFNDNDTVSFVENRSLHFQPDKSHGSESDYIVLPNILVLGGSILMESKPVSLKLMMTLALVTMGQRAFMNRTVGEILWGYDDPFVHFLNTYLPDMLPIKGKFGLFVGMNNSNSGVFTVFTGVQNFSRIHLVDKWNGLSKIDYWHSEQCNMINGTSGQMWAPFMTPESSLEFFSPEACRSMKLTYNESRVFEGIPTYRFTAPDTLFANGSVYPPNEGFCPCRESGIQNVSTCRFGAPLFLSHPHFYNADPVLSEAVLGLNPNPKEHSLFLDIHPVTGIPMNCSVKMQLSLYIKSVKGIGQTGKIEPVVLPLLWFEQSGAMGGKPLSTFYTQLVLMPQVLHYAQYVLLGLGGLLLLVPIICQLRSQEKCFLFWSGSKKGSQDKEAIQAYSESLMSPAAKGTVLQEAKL
The data set is described as follows: DiI-HDL uptake assay.

Data set [2] concerns receptor-mediated endocytosis of transferrin by ldlA[mSR-BI] cells. The data set can be described thus: Endocytosis of Alexa-594-labeled transferrin. The conditions noted are these: concentrations up to 35 μM.
A further data set relates to ldlA[mSR-BI] cells. The data set can be described thus: Cytotoxicity in the assay cell line. The conditions noted are these: 24 h incubation stated for 1a.

Entries after “also recorded” stand apart in the source; their conditions may differ.

As to `COc1ccc(-c2nnn(CC(=O)N(CC3CCCCC3)C(C)C(=O)NC3CCCC3)n2)cc1OC` (centres unmarked) [Compound 4d], the “Fold decrease in activity relative to 1a” value in data set [1] (carbon atom inserted between cyclohexyl group and backbone nitrogen) was “greater than 20 fold”. For `C[C@H](C(=O)NC1CCCC1)N(C(=O)Cn1nnc(-c2ccc3c(c2)OCO3)n1)C1CCCCC1` [Compound 5e], in data set [2], the “Inhibition of transferrin endocytosis” value is “no inhibition”. Further, in the data set with ldlA[mSR-BI] cells (listed as ML279), the Cytotoxicity result is on record as “non-toxic; also recorded: not cytotoxic”. For the same compound, the “Fold more potent than its enantiomer 5d” value in data set [1] ((R)-isomer vs (S)-isomer) came out at 100 fold. As for `COc1ccc(-c2nnn(CC(=O)N(C3CCCCC3)C(C)C(=O)NC3CCCC3)n2)cc1OC` (centres unmarked) [Compound 1a], the Cytotoxicity result in the data set with ldlA[mSR-BI] cells was “no measurable cytotoxicity”.
